Values after ≈ are worked out from the molar mass of the structure shown. Where two headings read alike, the source gives them in different places.
What was measured:
mammalian tyrosinase [1] = biological target: T1, mammalian tyrosinase (Mus musculus, UniProt P11344); assay: cell-free mammalian-enzyme assay system (tyrosinase inhibition, Mel-Ab cell lysates); type: biochemical; details: read-out: E: concentration of compound that produces 50% pigment inhibition in the cell-free mammalian-enzyme assay system
T1 construct: Cellular lysates of Mel-Ab cells may be used as tyrosinase enzyme preparations; endogenous in cells; host or cells: Mel-Ab mouse melanocytes (C57BL/6-derived), cell lysate
T1 sequence (P11344 19-533): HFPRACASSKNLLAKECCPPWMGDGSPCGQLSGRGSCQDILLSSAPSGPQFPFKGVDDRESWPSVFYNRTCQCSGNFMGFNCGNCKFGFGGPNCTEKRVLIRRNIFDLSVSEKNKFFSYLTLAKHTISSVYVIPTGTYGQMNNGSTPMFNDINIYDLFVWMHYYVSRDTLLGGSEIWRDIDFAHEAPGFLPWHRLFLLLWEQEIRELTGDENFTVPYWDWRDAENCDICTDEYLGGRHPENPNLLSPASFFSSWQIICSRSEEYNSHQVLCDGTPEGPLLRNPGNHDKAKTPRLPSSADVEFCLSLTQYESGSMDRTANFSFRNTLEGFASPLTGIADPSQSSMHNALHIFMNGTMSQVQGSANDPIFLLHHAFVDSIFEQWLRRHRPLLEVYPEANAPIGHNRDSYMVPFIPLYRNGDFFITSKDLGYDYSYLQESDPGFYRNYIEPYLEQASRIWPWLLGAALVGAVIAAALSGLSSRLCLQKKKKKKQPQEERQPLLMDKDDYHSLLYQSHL
Description: (§1) In the present invention, one or all of three in vitro bioassays can be utilized to evaluate the efficacy and toxicity of candidate skin-lightening compounds. The three bioassays characterize the compounds with regard to mammalian tyrosinase enzyme inhibition (cell free), pigmentation in melanocyte cultured cells, and cytotoxicity of mammalian cultured cells. Both cell-based pigmentation and cell-free enzymatic assays have been developed using the mammalian melanocyte cell line, Mel-Ab, a C57BL/6 mouse-derived cell line that produces high levels of melanin. A distinct advantage of this approach is that humans share substantial sequence similarities in their genes (DNA) and proteins (such as tyrosinase) with mice, relative to non-mammalian species (e.g., mushrooms). So, mouse Mel-Ab melanocytes can serve as adequate surrogates for human melanocytes for many pharmacologic purposes.
(§2) These adherent murine melanocytes are grown on tissue culture plastic in medium supplemented with fetal bovine serum, 12-O-tetradecanoylphorbol-13-acetate (TPA) to stimulate cell division via down-regulation of protein kinase C, [22, 23] and cholera toxin to stimulate adenylate cyclase activity in the absence of α-MSH. Cellular lysates of Mel-Ab cells may be used as tyrosinase enzyme preparations. Multi-well plate assays have been validated for enzyme inhibition (e.g., DOPA oxidation by colorimetric measurement or radiolabeled substrate incorporation into melanin) and for pigmentation assays on cultured Mel-Ab cells. After 4 days of treatment of cultured cells, melanin content is determined using a spectrophotometer at 400+ nm. This assay can detect an apparent loss in pigmentation resulting from either inhibition of de novo synthesis (e.g. via inhibition of tyrosinase, or the adenylate cyclase pathway, or another pathway) or a cytostatic/cytotoxic mechanism. It is therefore a broad primary screen. It is used in parallel with the tyrosinase enzymatic assay to determine whether an inhibitor of pigmentation at the cellular level is acting primarily at the enzyme level.
A distinct advantage of the screening systems (developed by the inventors of the present invention) is the focus on mammalian tyrosinase, as opposed to non-mammalian enzymes often used by other investigators, such as mushroom tyrosinase. Since the biochemical and pharmacologic characteristics of an enzyme or isozyme can vary dramatically between species of organisms (e.g., due to dissimilarities in primary, secondary, and tertiary structure), it is highly preferable that candidate topical skin lighteners intended for human use be discovered based on their biochemical action against a mammalian source of the enzyme. Mushroom tyrosinase (and in some instances plant polyphenol oxidases) has been used in the vast majority of prior inhibitor studies. […] Thus, the methods reported by the inventors of the present invention for screening against mammalian tyrosinase or within melanocytes is highly preferred over other possible screening strategies.
The substrate kinetic “affinity” of mammalian tyrosinase for L-tyrosine is approximately KM=600 μM. A potentially effective candidate skin lightening agent is considered to be desirable, active, and/or functional if it renders 50% inhibition of mammalian tyrosinase enzyme activity, at concentrations below half the enzyme's “affinity” for tyrosine in cell-free enzyme extracts (IC50≦300 μM) and pigment production in melanocyte cell cultures (IC50≦300 μM).
(§3) A first class of compounds based upon the template compound benzimidazolethiol (lower left structure) were tested for tyrosinase inhibition, cell culture pigment inhibition, and toxicity, by methods described in Curto, E. V., et al. (1999).

Mel-Ab melanocytes [2] = assay: mammalian-melanocyte-culture pigment assay system; type: cell-based, mouse; details: read-out: P: concentration of compound that produces 50% inhibition in the mammalian-melanocyte-culture pigment assay system
Description: as §1, §2, §3

Mel-Ab melanocytes [3] = assay: mammalian-melanocyte-culture toxicity assay system; type: cell-based, mouse; details: read-out: T: concentration of compound that kills 50% of cells in the mammalian-melanocyte-culture toxicity assay system
Description: as §1
[6] It should be noted that many inhibitors identified in cell-free enzymatic assays might have subsequent difficulties with toxicity or delivery in melanocyte cell-based assays. Therefore, all three in vitro assays in combination provide an excellent characterization of candidate skin lightening compounds.
as §3

[4] = UV absorbance: extinction coefficient at wavelength of maximum absorbency; type: physicochemical; details: for compound extinction coefficient ε: at λmax
mammalian tyrosinase [5] = biological target: T1, mammalian tyrosinase; details: cited from earlier work
Mel-Ab melanocytes [6] = details: cited from earlier work
Mel-Ab melanocytes [7] = details: cited from earlier work; remark: listed apart in the source
Salmonella = details: cited from earlier work
[8] = tested on: Chinese hamster V79 cells; details: cited from earlier work
[9] = compared with HQ; cited from earlier work

| Structure (SMILES) | IC50 (mammalian tyrosinase [1]) [µM] | IC50 (Mel-Ab melanocytes [2]; Mus musculus, Mel-Ab) [µM] | IC50 (Mel-Ab melanocytes [3]; Mus musculus, Mel-Ab) [µM] | wavelength of maximum absorbency λmax [4] [nm] | compound extinction coefficient ε [4] [OD/M × cm] | other results |
| --- | --- | --- | --- | --- | --- | --- |
| Oc1ccc2c(c1)OCO2 [ID # 009] | 98 | 209 | 775 |  |  |  |
| NC(=S)Nc1ccccc1 [ID # 033] | 2 | 12 | > 1000 |  |  |  |
| CC(=O)Nc1ccc(SC(C)=O)cc1 [ID # 148] | 500 |  |  | 255 | 3300 | IC50 (Mel-Ab melanocytes [2]): 30 µM; IC50 (Mel-Ab melanocytes [3]): 125 µM |
| CC(=S)Nc1ccccc1 [ID # 054] | 16 | 16 | > 1000 |  |  |  |
| COc1cccc2[nH]c(S)nc12 [ID # 084] | 0.07 |  |  | 310 | 10000 | IC50 (Mel-Ab melanocytes [2]): 1.6 µM; IC50 (Mel-Ab melanocytes [3]): > 1000 µM |
| COc1ccc(OC)c(S)c1 [ID # 093] | 500 |  |  | 305 | 2700 | IC50 (Mel-Ab melanocytes [2]): 200 µM; IC50 (Mel-Ab melanocytes [3]): 200 µM |
| CSc1ccc(S)cc1 [ID # 102] | 0.24 | 115 | 126 | 280 | 2300 |  |
| Sc1nc2ccccc2[nH]1 [ID # 138] | 0.25 |  |  | 300 | 14300 |  |
| COc1ccc(C(N)=S)cc1 [ID # 100] | 32 | 62 | > 1000 |  |  |  |
| Oc1ccc(O)cc1 [hydroquinone] |  |  |  |  |  | inhibition of the mammalian tyrosinase enzyme (in words) (mammalian tyrosinase [5]): minimal enzymatic inhibition; inhibition of the mammalian tyrosinase enzyme (in words) (mammalian tyrosinase [5]; listed as HQ): not an effective inhibitor; IC50 on Mel-Ab culture (Mel-Ab melanocytes [6]; positive control, owing to cytotoxicity, not inhibition of pigmentation per se): low micrograms per milliliter range; cytotoxicity to cultured mammalian melanocytes (in words) (Mel-Ab melanocytes [7]): potent cytotoxicity; cytotoxicity to cultured mammalian melanocytes (in words) (Mel-Ab melanocytes [7]; listed as HQ): cytotoxic; mutagenicity in Salmonella (Salmonella): mutagenic; mutagenicity in mammalian Chinese hamster V79 cells [8]: mutagenic |
| COc1ccc(CS)cc1 [ID # 082] | 5 | 81 | 500 | 275 | 1000 |  |
| Sc1nc2ccccc2s1 [ID # 040] | 8 |  |  |  |  |  |
| CCOc1ccc2nc(S)sc2c1 [ID # 091] | > 1000 |  |  |  |  | IC50 (Mel-Ab melanocytes [2]): > 1000 µM; IC50 (Mel-Ab melanocytes [3]): > 1000 µM |
| Nc1ccc2c(c1)CCC2 [ID # 079] | 73 | 71 | 472 |  |  |  |
| CC(=O)n1c(=S)[nH]c2ccccc21 [ID # 205] | 0.5 | 8.3 | 35 |  |  |  |
| Cc1cccc2[nH]c(S)nc12 [ID # 140] | 0.12 |  |  | 305 | 6300 | IC50 (Mel-Ab melanocytes [2]): 2.4 µM; IC50 (Mel-Ab melanocytes [3]): > 1000 µM |
| COc1ccc(S)cc1OC [ID # 103] | 8 | 8 | > 1000 | 250 | 4300 |  |
| COc1ccc(N)cc1OC [ID # 006] | 110 | 182 | > 1000 |  |  |  |
| NCCc1cccs1 [ID # 073] | > 1000 | 100 | > 1000 |  |  |  |
| S=c1[nH]c2cccnc2[nH]1 [ID # 135] | 4 |  |  |  |  | IC50 (Mel-Ab melanocytes [2]): 256 µM; IC50 (Mel-Ab melanocytes [3]): > 1000 µM |
| [Se]=c1[nH]c2ccccc2[nH]1 [ID # 098] | 0.8 |  |  |  |  | IC50 (Mel-Ab melanocytes [2]): 14 µM; IC50 (Mel-Ab melanocytes [3]): 132 µM |
| COc1cccc(S)c1 [ID # 099] | 53 | 85 | 202 | 265 | 3000 |  |
| Oc1ccc2[nH]ccc2c1 [ID # 026] | 54 | 153 | 367 |  |  |  |
| CC(=O)Nc1ccc(S)cc1 [ID # 083] | 19 | 82 | 542 | 265 | 4700 |  |
| COC(=O)c1cc(O)ccc1O [methyl gentisate] |  |  |  |  |  | IC50 against tyrosinase activity in cell-free assays (mammalian tyrosinase [5]; Curto et al. (1999)): 11.2 ± 4 µg/mL (≈ 66.6 µM); IC50 in melanocyte cell cultures (Mel-Ab melanocytes [6]; Curto et al. (1999)): 30.9 ± 5 µg/mL (≈ 184 µM); inhibition of melanin accumulation (in words) (Mel-Ab melanocytes [6]; murine melanocyte cell culture primary screen): moderately potent inhibitor; melanocyte cytotoxicity IC50 (Mel-Ab melanocytes [7]; Curto et al. (1999)): 118.7 ± 12 µg/mL; mutagenic activity [9]: lacking the mutagenic activity |
| COC(=O)c1cccc(N)c1 [ID # 092] | 79 | 236 | > 1000 |  |  |  |
| O=C(O)c1cc(O)ccc1O [GA, 2,5-dihydroxybenzoic acid] |  |  |  |  |  | mutagenic activity [9]: lacking the mutagenic activity |
